Reference: patent publication US20240190849A1, “AMINOPYRIMIDINE COMPOUNDS AND METHODS OF THEIR USE” (TYRA BIOSCIENCES, INC., priority 2021, published 2024)

What was measured:
Settings in all cases: FGFR binding data
FGFR3 = target: T1, FGFR3 (Homo sapiens, UniProt P22607); test: Kinase binding assay (kinase-tagged T7 phage, affinity beads, qPCR readout), FGFR3
T1 construct: made in house; host or cells: E. coli derived from BL21, infected with T7 phage
Description: (§1) Kinase-tagged T7 phage strains were prepared in an E. coli host derived from the BL21 strain. E. coli were grown to log-phase and infected with T7 phage and incubated with shaking at 32° C. until lysis. The lysates were centrifuged and filtered to remove cell debris. Streptavidin-coated magnetic beads were treated with biotinylated small molecule ligands for 30 minutes at room temperature to generate affinity resins for kinase assays. The liganded beads were blocked with excess biotin and washed with blocking buffer SeaBlock (Pierce), 1% BSA, 0.05% Tween 20, 1 mM DTT to remove unbound ligand and to reduce non-specific binding. Binding reactions were assembled by combining kinases, liganded affinity beads, and test compounds in 1× binding buffer (20% SeaBlock, 0.17×PBS, 0.05% Tween 20, 6 mM DTT).
(§2) Test compounds were prepared as 111× stocks in 100% DMSO. Kds were determined using an 11-point 3-fold compound dilution series with three DMSO control points. All compounds for Kd measurements are distributed by acoustic transfer (non-contact dispensing) in 100% DMSO. The compounds were then diluted directly into the assays such that the final concentration of DMSO was 0.9%. All reactions performed in polypropylene 384-well plate. Each was a final volume of 0.02 ml. The assay plates were incubated at room temperature with shaking for 1 hour and the affinity beads were washed with wash buffer (1×PBS, 0.05% Tween 20). The beads were then re-suspended in elution buffer (1×PBS, 0.05% Tween 20, 0.5 μM non-biotinylated affinity ligand) and incubated at room temperature with shaking for 30 minutes. The kinase concentration in the eluates was measured by qPCR.
(§3) Binding constants were calculated with a standard dose-response curve using the Hill equation: […]
(§4) The Hill Slope was set to −1. Curves were fitted using a non-linear least square fit with the Levenberg-Marquardt algorithm.

FGFR2 = target: T2, FGFR2 (Homo sapiens, UniProt P21802); test: Kinase binding assay (kinase-tagged T7 phage, affinity beads, qPCR readout), FGFR2
T2 construct: made in house; host or cells: E. coli derived from BL21, infected with T7 phage
Description: as §1, §2, §3, §4

FGFR3 (V555M) = target: T3, FGFR3 (V555M) (Homo sapiens, UniProt P22607, V555M); test: Kinase binding assay (kinase-tagged T7 phage, affinity beads, qPCR readout), FGFR3 (V555M)
T3 construct: made in house; host or cells: E. coli derived from BL21, infected with T7 phage
Description: as §1, §2, §3, §4

FGFR1 = target: T4, FGFR1 (Homo sapiens, UniProt P11362); test: Kinase binding assay (kinase-tagged T7 phage, affinity beads, qPCR readout), FGFR1
T4 construct: made in house; host or cells: E. coli derived from BL21, infected with T7 phage
Description: as §1, §2, §3, §4

T4 sequence (P11362 22-822): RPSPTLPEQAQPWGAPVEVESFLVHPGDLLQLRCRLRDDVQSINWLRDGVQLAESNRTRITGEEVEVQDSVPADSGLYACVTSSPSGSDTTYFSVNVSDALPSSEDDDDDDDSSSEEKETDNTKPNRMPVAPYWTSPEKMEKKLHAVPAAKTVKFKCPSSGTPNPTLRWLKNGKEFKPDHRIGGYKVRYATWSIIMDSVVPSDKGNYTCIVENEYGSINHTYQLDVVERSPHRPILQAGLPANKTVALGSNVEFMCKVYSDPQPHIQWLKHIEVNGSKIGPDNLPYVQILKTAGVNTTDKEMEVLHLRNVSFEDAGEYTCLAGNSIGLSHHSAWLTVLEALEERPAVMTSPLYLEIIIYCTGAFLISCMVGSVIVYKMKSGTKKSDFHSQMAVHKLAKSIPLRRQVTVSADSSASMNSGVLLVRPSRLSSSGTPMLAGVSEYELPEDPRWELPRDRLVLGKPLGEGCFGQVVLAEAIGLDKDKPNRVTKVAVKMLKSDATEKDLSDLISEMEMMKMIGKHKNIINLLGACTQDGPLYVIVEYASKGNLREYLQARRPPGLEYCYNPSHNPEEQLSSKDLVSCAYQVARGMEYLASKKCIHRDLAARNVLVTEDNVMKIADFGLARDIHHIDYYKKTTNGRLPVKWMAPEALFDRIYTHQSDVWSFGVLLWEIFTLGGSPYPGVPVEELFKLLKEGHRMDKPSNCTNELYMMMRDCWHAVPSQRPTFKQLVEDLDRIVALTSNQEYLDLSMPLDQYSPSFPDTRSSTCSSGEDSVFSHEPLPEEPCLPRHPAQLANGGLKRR
T3 sequence (P22607 23-806 V555M): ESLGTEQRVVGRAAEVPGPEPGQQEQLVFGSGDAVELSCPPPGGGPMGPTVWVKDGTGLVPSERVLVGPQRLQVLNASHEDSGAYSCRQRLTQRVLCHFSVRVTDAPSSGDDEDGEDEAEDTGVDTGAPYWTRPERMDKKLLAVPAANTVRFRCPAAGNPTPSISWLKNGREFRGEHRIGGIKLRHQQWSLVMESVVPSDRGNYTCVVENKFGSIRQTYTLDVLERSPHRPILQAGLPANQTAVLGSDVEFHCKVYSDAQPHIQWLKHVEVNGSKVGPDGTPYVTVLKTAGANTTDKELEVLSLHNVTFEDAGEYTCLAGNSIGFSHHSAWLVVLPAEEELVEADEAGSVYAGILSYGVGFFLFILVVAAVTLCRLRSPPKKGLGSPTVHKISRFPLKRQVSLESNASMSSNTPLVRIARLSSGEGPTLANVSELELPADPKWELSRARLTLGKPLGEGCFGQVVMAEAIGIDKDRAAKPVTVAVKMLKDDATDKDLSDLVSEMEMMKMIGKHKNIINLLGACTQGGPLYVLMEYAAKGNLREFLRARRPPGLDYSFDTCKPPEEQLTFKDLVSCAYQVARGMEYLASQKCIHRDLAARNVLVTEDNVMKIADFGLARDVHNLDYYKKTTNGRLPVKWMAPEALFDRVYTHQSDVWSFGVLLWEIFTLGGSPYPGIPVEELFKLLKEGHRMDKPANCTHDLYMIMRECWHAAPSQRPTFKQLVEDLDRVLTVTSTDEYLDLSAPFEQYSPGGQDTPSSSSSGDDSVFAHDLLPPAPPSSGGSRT
T2 sequence (P21802 22-821): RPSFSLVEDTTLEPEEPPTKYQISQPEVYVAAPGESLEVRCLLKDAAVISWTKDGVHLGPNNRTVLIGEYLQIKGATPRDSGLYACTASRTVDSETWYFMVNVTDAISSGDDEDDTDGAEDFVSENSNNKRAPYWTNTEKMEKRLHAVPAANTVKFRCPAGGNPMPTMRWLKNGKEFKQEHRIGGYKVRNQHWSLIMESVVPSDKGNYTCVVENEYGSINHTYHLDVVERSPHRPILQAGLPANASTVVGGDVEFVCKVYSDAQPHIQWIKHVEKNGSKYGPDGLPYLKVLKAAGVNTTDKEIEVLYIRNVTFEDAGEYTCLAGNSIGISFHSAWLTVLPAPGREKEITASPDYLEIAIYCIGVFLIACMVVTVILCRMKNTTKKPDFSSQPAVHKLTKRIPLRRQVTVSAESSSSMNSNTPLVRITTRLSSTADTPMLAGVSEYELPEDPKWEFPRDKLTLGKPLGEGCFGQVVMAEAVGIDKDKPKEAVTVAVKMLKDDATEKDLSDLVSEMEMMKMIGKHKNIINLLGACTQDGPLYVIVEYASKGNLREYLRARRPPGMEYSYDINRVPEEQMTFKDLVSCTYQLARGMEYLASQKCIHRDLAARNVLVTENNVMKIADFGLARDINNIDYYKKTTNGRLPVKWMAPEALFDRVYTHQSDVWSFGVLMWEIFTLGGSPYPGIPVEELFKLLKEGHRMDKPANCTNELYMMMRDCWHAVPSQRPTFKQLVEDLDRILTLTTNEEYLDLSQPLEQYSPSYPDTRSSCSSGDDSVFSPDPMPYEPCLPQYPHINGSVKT
T1 sequence (P22607 23-806): as the sequence (P22607 23-806 V555M) above, with M533V counted along it

Structure (SMILES) | Kd (FGFR3) [nM] | Kd (FGFR2) [nM] | Kd (FGFR3 (V555M)) [nM] | Kd (FGFR1) [nM]
C=CC(=O)Nc1ccc2c(c1)c(C)cn2-c1nc(Nc2ccc3ncnn3c2)ncc1Cl [Example 47, N-[1-[5-chloro-2-([1,2,4]triazolo[1,5-a]pyridin-6-ylamino)pyrimidin-4-yl]-3-methyl-indol-5-yl]prop-2-enamide] | 0.1 to 100 | 0.1 to 100 | 0.1 to 100 | 100 to 250
C=CC(=O)Nc1ccc2c(-c3nc(Nc4ccc(N5CCN(C)CC5)c(OC)c4)ncc3Cl)cn(C)c2c1 [Example 48, N-[3-[5-chloro-2-[3-methoxy-4-(4-methylpiperazin-1-yl)anilino]-pyrimidin-4-yl]-1-methyl-indol-6-yl]prop-2-enamide] | 0.1 to 100 | 0.1 to 100 | 0.1 to 100 | 0.1 to 100
C=CC(=O)Nc1ccc2c(-c3nc(Nc4ccc(N5CCOCC5)c(OC)c4)ncc3Cl)cn(C)c2c1 [Example 51, N-[3-[5-chloro-2-(3-methoxy-4-morpholino-anilino)pyrimidin-4-yl]-1-methyl-indol-6-yl]prop-2-enamide] | 0.1 to 100 | 0.1 to 100 | 0.1 to 100 | 0.1 to 100
C=CC(=O)Nc1ccc2c(-c3nc(Nc4ccc(N5CCOCC5)cc4)ncc3C)cn(C)c2c1 [Example 52, N-[1-Methyl-3-[5-methyl-2-(4-morpholinoanilino)pyrimidin-4-yl]indol-6-yl]prop-2-enamide] | 0.1 to 100 | 0.1 to 100 | 0.1 to 100 | 0.1 to 100
C=CC(=O)Nc1ccc2c(c1)c(C)cn2-c1nc(Nc2cc(C)nn2C)ncc1Cl [Example 56, N-[1-[5-chloro-2-[(2,5-dimethylpyrazol-3-yl)amino]-pyrimidin-4-yl]-3-methyl-indol-5-yl]prop-2-enamide] | 0.1 to 100 | 0.1 to 100 | 0.1 to 100 | 100 to 250
C=CC(=O)Nc1ccc2c(-c3nc(Nc4ccc(N(C)CCN(C)C)c(OC)c4)ncc3Cl)cn(C)c2c1 [Example 58, N-[3-[5-chloro-2-[4-[2-(dimethylamino)ethyl-methyl-amino]-3-methoxy-anilino]-pyrimidin-4-yl]-1-methyl-indol-6-yl]prop-2-enamide] | 0.1 to 100 | 0.1 to 100 | 0.1 to 100 | 0.1 to 100
C=CC(=O)Nc1ccc2c(-c3nc(Nc4ccc(N5CCN(C)CC5)nc4)ncc3Cl)cn(C)c2c1 [Example 59, N-[3-[5-chloro-2-[[6-(4-methylpiperazin-1-yl)-3-pyridyl]amino]pyrimidin-4-yl]-1-methyl-indol-6-yl]prop-2-enamide] | 0.1 to 100 | 0.1 to 100 | 0.1 to 100 | 0.1 to 100
C=CC(=O)Nc1cc2c(C)cn(-c3nc(Nc4ccc(N5CCOCC5)cc4)ncc3Cl)c2cc1C [Example 60, N-[1-[5-chloro-2-(4-morpholinoanilino)-pyrimidin-4-yl]-3,6-dimethyl-indol-5-yl]prop-2-enamide] | > 1000 | > 1000 | 100 to 250 | > 1000
C=CC(=O)Nc1ccc2c(-c3nc(Nc4ccnn4C)ncc3Cl)cn(C)c2c1 [Example 62, N-[3-[5-chloro-2-[(2-methylpyrazol-3-yl)amino]pyrimidin-4-yl]-1-methyl-indol-6-yl]prop-2-enamide] | 0.1 to 100 | 0.1 to 100 | 0.1 to 100 | 250 to 1000
C=CC(=O)Nc1ccc2c(-c3nc(Nc4cc(C)nn4C)ncc3Cl)cn(C)c2c1 [Example 63, N-[3-[5-chloro-2-[(2,5-dimethylpyrazol-3-yl)amino]-pyrimidin-4-yl]-1-methyl-indol-6-yl]prop-2-enamide] | 0.1 to 100 | 0.1 to 100 | 0.1 to 100 | 250 to 1000
C=CC(=O)Nc1ccc2c(c1)c(C)cn2-c1nc(Nc2ccc(CN3CCN(C)CC3)cc2)ncc1Cl [Example 65, N-[1-[5-chloro-2-[4-[(4-methylpiperazin-1-yl)methyl]-anilino]pyrimidin-4-yl]-3-methyl-indol-5-yl]prop-2-enamide] | 0.1 to 100 | 0.1 to 100 | 0.1 to 100 | 0.1 to 100
C=CC(=O)Nc1ccc2c(c1)c(C)cn2-c1nc(Nc2ccc(CN3CCOCC3)c(C)c2)ncc1Cl [Example 66, N-[1-[5-chloro-2-[3-methyl-4-(morpholinomethyl)anilino]pyrimidin-4-yl]-3-methyl-indol-5-yl]prop-2-enamide] | 0.1 to 100 | 0.1 to 100 | 0.1 to 100 | 0.1 to 100
C=CC(=O)Nc1cc(C)c2c(c1)c(C)cn2-c1nc(Nc2cnn(C)c2)ncc1Cl [Example 71, N-[1-[5-chloro-2-[(1-methylpyrazol-4-yl)amino]pyrimidin-4-yl]-3,7-dimethyl-indol-5-yl]prop-2-enamide] | > 1000 | > 1000 | > 1000 | > 1000
C=CC(=O)Nc1ccc2c(c1)c(C)cn2-c1nc(Nc2cnnn2C)ncc1Cl [Example 72, N-[1-[5-chloro-2-[(3-methyltriazol-4-yl)amino]pyrimidin-4-yl]-3-methyl-indol-5-yl]prop-2-enamide] | 0.1 to 100 | 0.1 to 100 | 0.1 to 100 | 0.1 to 100
C=CC(=O)Nc1ccc2c(c1)c(C)cn2-c1nc(Nc2cccc(N3CCN(C)CC3)c2)ncc1Cl [Example 73, N-[1-[5-chloro-2-[3-(4-methylpiperazin-1-yl)anilino]-pyrimidin-4-yl]-3-methyl-indol-5-yl]prop-2-enamide] | 0.1 to 100 | 0.1 to 100 | 0.1 to 100 | 0.1 to 100
C=CC(=O)Nc1cc(C)c2c(c1)c(C)cn2-c1nc(Nc2ccc(N3CCOCC3)cc2)ncc1Cl [Example 74, N-[1-[5-chloro-2-(4-morpholinoanilino)pyrimidin-4-yl]-3,7-dimethyl-indol-5-yl]prop-2-enamide] | 0.1 to 100 | 0.1 to 100 | 0.1 to 100 | 0.1 to 100
C=CC(=O)Nc1ccc2c(c1)c(C)cn2-c1nc(Nc2ccc(CN3CCOCC3)cc2)ncc1Cl [Example 75, N-[1-[5-chloro-2-[4-(morpholinomethyl)anilino]pyrimidin-4-yl]-3-methyl-indol-5-yl]prop-2-enamide] | 0.1 to 100 | 0.1 to 100 | 0.1 to 100 | 0.1 to 100
C=CC(=O)Nc1ccc2c(c1)c(C)cn2-c1ccnc(Nc2cnn(C)c2)n1 [Example 79, N-[3-methyl-1-[2-[(1-methylpyrazol-4-yl)amino]pyrimidin-4-yl]indol-5-yl]prop-2-enamide] | 0.1 to 100 | 0.1 to 100 | 0.1 to 100 | 0.1 to 100
C=CC(=O)Nc1ccc2c(c1)c(C)cn2-c1ccnc(Nc2ccnn2C)n1 [Example 82, N-[3-methyl-1-[2-[(2-methylpyrazol-3-yl)amino]pyrimidin-4-yl]indol-5-yl]prop-2-enamide] | 0.1 to 100 | 0.1 to 100 | 0.1 to 100 | 100 to 250
C=CC(=O)Nc1cnc2c(c1)c(C)cn2-c1ccnc(Nc2ccnn2C)n1 [Example 83, N-[3-methyl-1-[2-[(2-methylpyrazol-3-yl)amino]pyrimidin-4-yl]pyrrolo[2,3-b]pyridin-5-yl]prop-2-enamide] | 0.1 to 100 | 0.1 to 100 | 0.1 to 100 | 0.1 to 100
